Experimental data reported in publication PMC8158701, “Characterization of the CYP3A4 Enzyme Inhibition Potential of Selected Flavonoids” (Molecules, 2021).
Like-named read-outs stand apart in the source and are kept apart here.

How the values were obtained:
[1] = target: T1, CYP3A4 (Homo sapiens, UniProt P08684); test: CYP3A4 inhibition and inactivation kinetics, nifedipine oxidation as marker reaction
Method: Enzyme incubations were performed in triplicate, with mechanical stirring in a water bath at 37 °C. Aliquots of flavonoids with a final concentration of 1 μM were dissolved in methanol, transferred to glass tubes, and evaporated to dryness, except in control samples without the inhibitor (flavonoid). After the evaporation of the solvent, an incubation mixture was prepared to a volume of 100 μL, consisting of 5 pmol CYP3A4 enzyme, 50 mM potassium phosphate buffer (pH 7.4), and ultrapure water. An NADPH generating system composed of 0.1 M G6P: 10 mg/mL NADP^+: 1000 IU/mL G6PDH = 50:25:1 (v/v/v) was prepared immediately before use. This generating system contains glucose-6-phosphate dehydrogenase that regenerates NADP^+ into NADPH, keeping the concentration of the cytochrome P450 coenzyme (NADPH) constant in the incubation. The addition of the generating system (15% of the volume in the final incubation, v/v) started the reaction. Nifedipine was used to test out the residual enzyme activity at a final concentration of 200 μM. The reaction was stopped using 1 mL of ice-cold 1% solution of formic acid in dichloromethane. The samples were mixed, then centrifuged for 10 min on 1900g (Rotofix 32, Westfalia, Germany). After centrifugation, two layers were formed (water and organic layer). 850 µL of the organic layer was transferred to cuvettes and evaporated. The analyte was then dissolved in 30 µL of methanol. An Agilent Zorbax SB C18 column (4.6 × 250 mm, 3 μm, Agilent Technologies, Santa Clara, CA, USA) was used to analyze the samples by HPLC. The mobile phase was composed of methanol and water in a ratio of 64:36. The analysis was isocratic. The flow was set at 1.0 mL min^−1. The injection volume was set at 10 µL. Nifedipine was used as a marker substrate. The reaction observed was the oxidation of nifedipine. Chromatograms were recorded at 254 nm. The duration of the analysis was set at 25 min. The retention time of nifedipine is 7.1 min and that of oxidized nifedipine is 10.8 min [42]. […] For all the flavonoids, half maximal inhibitory concentration (IC50), constant of inhibition (Ki), constant of inactivation speed (kinact), and inactivation efficacy (kinact/Ki) were determined.
A one-sided t-test would be used to assess the statistical significance in the differences between samples and controls, based on measurements of residual activity. A nonlinear equation was used to calculate the IC50 value. The Michaelis-Menten equation was used to determine the inactivation constant and the inactivation rate of the inhibitor. Statistical processing and graph preparations were done using Program R (The R Project for Statistical Computing, Vienna, Austria) and Microsoft Excel (Microsoft, Redmond, WA, USA).

[2] = target: T1, CYP3A4; set-up: purchased Thermo Fisher Scientific (Waltham, MA, USA); host or cells: baculosomes (baculovirus-infected insect cell microsomes); details: cited from earlier work; for inhibition of CYP3A4: 1 µM concentration, testosterone as marker substrate; for IC50 / Ki / kinact / kinact/Ki: testosterone (TSN) as marker substrate
[3] = combination treatment of apigenin and paclitaxel in vivo; cited from earlier work
[4] = set-up: method as in PMID 17093006; details: rats, chrysin 20–100 µM; cited from earlier work
[5] = target: T1, CYP3A4; test: Pseudo-irreversible inhibition assay (incubation, dialysis with or without potassium hexacyanoferrate, testosterone marker); format: biochemical; set-up: purchased Thermo Fisher Scientific (Waltham, MA, USA); host or cells: baculosomes (baculovirus-infected insect cell microsomes); details: after incubation and dialysis (Figure 4)
Method: The aim of this assay is to test out the formation of covalent complexes with ferrous iron (Fe^2+), by assessing a recovery of enzyme activity after dialysis with or without the addition of an oxidant. Three types of experiments were performed for each flavonoid: incubation mixture without flavonoids (control), incubation mixture with flavonoid, and incubation mixture with flavonoid to which oxidant was added after incubation. Each incubation with the inhibitor was performed for 30 min using the same experimental settings as described above (Section 4.2.1). After incubation, the samples were transferred to dialysis cartridges. Aa oxidant—20 mM solution of potassium hexacyanoferrate was added to one of the incubations before dialysis. The cassettes (Slide-A-Lyzer Dialysis Cassettes, Thermo Fisher Scientific, Waltham, MA, USA) were immersed in 50 mM potassium phosphate buffer solution (pH 7.4) for 30 min (dialysis solution was exchanged three times). After dialysis, the samples were transferred from the cassette back to the glass tube, and the residual enzyme activity was assessed using testosterone as a marker substrate (200 μM final concentration). As the NADPH generating system was also dialyzed, it was again added to the incubations to initiate enzyme reaction. […] The samples were analyzed by HPLC.

[6] = set-up: method as in PMID 7937537; details: healthy volunteers; cited from earlier work
[7] = human, CYP3A4 enzyme, pH 7.4, probe nifedipine (200 µM), nifedipine oxidation
[8] = human, CYP3A4 enzyme, pH 7.4, probe nifedipine (200 µM), nifedipine oxidation, kinact/Ki (inactivation efficiency), nifedipine (NIF) as marker substrate, ratio of inactivation rate constant and inhibition constant
[9] = nifedipine (NIF) as marker substrate, ratio of inactivation rate constant and inhibition constant

T1 sequence (P08684 whole entry): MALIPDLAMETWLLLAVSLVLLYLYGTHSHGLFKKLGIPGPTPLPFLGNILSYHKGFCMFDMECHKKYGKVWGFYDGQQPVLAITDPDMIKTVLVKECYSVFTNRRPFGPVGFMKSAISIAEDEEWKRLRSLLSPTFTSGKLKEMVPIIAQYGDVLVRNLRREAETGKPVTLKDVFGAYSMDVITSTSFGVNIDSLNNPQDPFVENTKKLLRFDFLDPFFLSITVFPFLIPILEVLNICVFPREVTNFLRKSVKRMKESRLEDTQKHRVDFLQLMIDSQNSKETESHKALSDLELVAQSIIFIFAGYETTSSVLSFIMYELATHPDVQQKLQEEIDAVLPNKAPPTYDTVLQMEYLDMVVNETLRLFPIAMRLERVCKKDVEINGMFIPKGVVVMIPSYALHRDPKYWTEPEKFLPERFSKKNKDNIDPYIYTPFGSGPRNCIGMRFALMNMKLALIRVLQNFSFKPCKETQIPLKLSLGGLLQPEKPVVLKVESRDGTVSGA

SMILES	IC50 [1]	Ki [1]	kinact [1, 7]	kinact/KI [1, 8]	kinact/Ki (inactivation efficiency) [1, 9]	kinact ([1]; human, pH 7.4)	kinact/Ki (inactivation efficiency) ([1]; human, pH 7.4)	kinact/KI ([1]; human, pH 7.4, kinact/Ki (inactivation efficiency))	reduction of enzyme activity [5]	inhibition of CYP3A4 [2]	IC50 [2]	Ki [2]	kinact [2]	kinact/Ki [2]	oral bioavailability of paclitaxel [3]	AUC and peak serum concentration (Cmax) of nitrofurantoin [4]	increase in AUC of cerivastatin [6]
COc1ccc(-c2cc(=O)c3c(O)cc(O)cc3o2)cc1 [acacetin]	7.5 ± 2.7 µM	12.1 ± 5.6 µM	0.00167 s⁻¹	~167 M⁻¹ s⁻¹	0.008 min⁻¹ µM⁻¹	–	–	–	–	statistically significant inhibition	10.9 ± 0.3 µM	6000 ± 3000 nM	0.036 ± 0.006 min⁻¹	0.006 min⁻¹ µM⁻¹	–	–	–
O=c1cc(-c2ccc(O)cc2)oc2cc(O)cc(O)c12 [apigenin]	–	–	–	–	–	–	–	–	–	statistically significant inhibition	–	–	–	–	increase in oral bioavailability of paclitaxel	–	–
CC[C@H]1OC(=O)[C@H](C)[C@@H](O[C@H]2C[C@@](C)(OC)[C@@H](O)[C@H](C)O2)[C@H](C)[C@@H](O[C@@H]2O[C@H](C)C[C@H](N(C)C)[C@H]2O)[C@](C)(O)C[C@@H](C)C(=O)[C@H](C)[C@@H](O)[C@]1(C)O [erythromycin]	–	–	–	–	–	–	–	–	–	–	–	–	–	–	–	–	21%

Now from value to molecule, other results behind:

IC50 [1]	Ki [1]	kinact [1, 7]	kinact/KI [1, 8]	kinact/Ki (inactivation efficiency) [1, 9]	kinact ([1]; human, pH 7.4)	kinact/Ki (inactivation efficiency) ([1]; human, pH 7.4)	kinact/KI ([1]; human, pH 7.4, kinact/Ki (inactivation efficiency))	reduction of enzyme activity [5]	SMILES	inhibition of CYP3A4 [2]	IC50 [2]	Ki [2]	kinact [2]	kinact/Ki [2]	oral bioavailability of paclitaxel [3]	AUC and peak serum concentration (Cmax) of nitrofurantoin [4]	increase in AUC of cerivastatin [6]
2.5 ± 0.6 µM	2.4 ± 1 µM	–	–	–	0.00117 s⁻¹	0.029 min⁻¹ µM⁻¹	500 M⁻¹ s⁻¹	approximately 99%	O=c1cc(-c2ccccc2)oc2cc(O)cc(O)c12 [chrysin, 5,7-dihydroxy-flavone]	statistically significant inhibition	0.6 ± 0.5 µM	600 ± 300 nM	0.065 ± 0.005 min⁻¹	0.108 min⁻¹ µM⁻¹	–	significantly increased	–
4.3 ± 1.1 µM	5.1 ± 1.6 µM	0.000667 s⁻¹	~167 M⁻¹ s⁻¹	0.008 min⁻¹ µM⁻¹	–	–	–	–	O=C1CC(c2ccccc2)Oc2cc(O)cc(O)c21 (centres unmarked) [pinocembrin, 5,7-dihydroxy-flavanone]	statistically significant inhibition	5 ± 0.6 µM	1200 ± 300 nM	0.018 ± 0.001 min⁻¹	0.015 min⁻¹ µM⁻¹	–	–	–
